What all share (assay type): in vivo
One test has as its system growth hormone. As to the kind of experiment: Suppression of Growth Hormone, Glucagon and Insulin (arginine-stimulated, nembutal-anesthetized rats): growth hormone. To be noted: for GH: albino male rats, arginine stimulation, blood 15 min after compound. On the procedure:
(§1) Albino male rats are arranged in the three groups (nine rats/group) and injected i.p. with nembutal at 50 mg/kg. Fifteen minutes after the nembutal injection they are injected s.c. according to group with (a) test compound, typically 10-2000 μg/kg.; )b) SRIF 200 μg/kg.; or (c) physiological saline. Ten minutes. later 0.5 ml. of arginine (300 mg/ml. pH 7.2) is injected into the heart. The rats are decapitated five minutes after receiving the arginine, and the blood is collected into Trasylol-EDTA. Appropriate aliquots are then assayed for growth hormone, glucagon and insulin. […] Comparisons between control and experimental values are statistically evaluated by the analysis of variants method and statistical significance (p) at 0.05 or lower is used as the index of activity.

The test system of another test is growth hormone (GH). Briefly: Suppression of Growth Hormone (duration of activity, 2 and 4 hours after sc injection). Particulars: 1 mg/kg sc, nonfasted male rats, paired saline control; for plasma growth hormone (GH) concentration, 2 Hr.: 2 hours after injection; for plasma growth hormone (GH) concentration, 4 Hr.: 4 hours after injection. How it is done: A subcutaneous (sc) injection of peptide solubilized or suspended in physiological saline, is given to Charles River (CD® nonfasted male rats. Matched saline control solution sc injected rats serve as control animals so that every experimental rat is paired with a control rat. The rats are kept in separate cages and 20 minutes before the end of the test time period they are given an intraperitoneal (i.p.) injection of Nembutal® at a dose of 50 mg/kg. Blood samples are obtained by cardiac puncture and the plasma separated for the radioimmunoassay of growth hormone (GH) concentration (ng/ml.). Time periods after injection of 2 and 4 hours are used to test the duration of the activity of the peptide to suppress circulating peripheral GH levels. Comparisons between control and experimental GH values at each time are evaluated by the Student "t" test and statistical significance (p) at the 0.05 level or lower is used as the index of activity.

For a further test, the system named is glucagon. Briefly: Suppression of Growth Hormone, Glucagon and Insulin (arginine-stimulated, nembutal-anesthetized rats): glucagon. To be noted: albino male rats, arginine stimulation, blood 15 min after compound. On the procedure:
as §1

For another test, the system named is insulin. As to the kind of experiment: Suppression of Growth Hormone, Glucagon and Insulin (arginine-stimulated, nembutal-anesthetized rats): insulin. To be noted: albino male rats, arginine stimulation, blood 15 min after compound. How it is done:
as §1

Structures are written as SMILES. Structures can show the parent of a compound that is named as a salt. Residues, ends and D or L forms follow the SMILES beside them.

Regarding `C[C@@H](O)[C@@H]1NC(=O)[C@H](Cc2ccccc2)NC(=O)[C@H]([C@@H](C)O)NC(=O)[C@H](CCCCN)NC(=O)[C@@H](Cc2c[nH]c3ccccc23)NC(=O)[C@H](Cc2ccccc2)NC(=O)[C@H](Cc2ccccc2)NC(=O)[C@H](Cc2c[nH]cn2)NC(=O)[C@H](Cc2c[nH]cn2)NC(=O)[C@@H](N)CSSC[C@@H](C(=O)O)NC(=O)[C@H](CO)NC1=O` [Compound I, L-Cysteinyl-L-Histidyl-L-Histidyl-L-Phenylalanyl-L-Phenylalanyl-D-Trptophyl-L-Lysyl-L-Threonyl-L-Phenylalanyl-L-Threonyl-L-Seryl-L-Cysteine Cyclic (1-12) Disulfide] (HELM PEPTIDE1{C.H.H.F.F.[dW].K.T.F.T.S.C}$PEPTIDE1,PEPTIDE1,1:R3-12:R3$$$V2.0), the GH with growth hormone (100 μg/kg s.c.) was determined as 20 ± 8 ng/mL. In the test on growth hormone (GH), the “plasma growth hormone (GH) concentration, 2 Hr.” value turned out to be 32 ± 6 ng/mL and the “plasma growth hormone (GH) concentration, 4 Hr.” value came to 62 ± 13 ng/mL. Further, the Glucagon in the test with glucagon (100 μg/kg s.c.) is 20 ± 8 pg/mL. The Insulin with insulin (100 μg/kg s.c.) stood at 202 ± 49 μU/ml.
As to `C[C@@H](O)[C@@H]1NC(=O)[C@H](CCCCN)NC(=O)[C@@H](Cc2c[nH]c3ccccc23)NC(=O)[C@H](Cc2ccccc2)NC(=O)[C@H](Cc2ccccc2)NC(=O)[C@H](Cc2c[nH]cn2)NC(=O)[C@H](Cc2c[nH]cn2)NC(=O)[C@@H](N)CSSC[C@H](C(=O)O)NC(=O)[C@H](CO)NC(=O)[C@H]([C@@H](C)O)NC(=O)[C@H](Cc2ccccc2)NC1=O` [Compound II, L-Cysteinyl-L-Histidyl-L-Histidyl-L-Phenylalanyl-L-Phenylalanyl-D-Tryptophyl-L-Lysyl-L-Threonyl-L-Phenylalanyl-L-Threonyl-L-Seryl-D-Cysteine Cyclic (1-12) Disulfide, Diacetate Salt] (HELM PEPTIDE1{C.H.H.F.F.[dW].K.T.F.T.S.[dC]}$PEPTIDE1,PEPTIDE1,1:R3-12:R3$$$V2.0), the figures for the GH with growth hormone (10 μg/kg s.c.) and with growth hormone (100 μg/kg s.c.) were 110 ± 22 ng/mL and 64 ± 20 ng/mL, respectively. The “hormone specificity of suppression” value in the test with growth hormone (at low doses, growth hormone, glucagon and insulin) was “specific for the suppression of glucagon and growth hormone without affecting insulin secretion”. Further, in the test on growth hormone (GH), the “plasma growth hormone (GH) concentration, 2 Hr.” value was 20 ± 3 ng/mL. For the same compound, the “plasma growth hormone (GH) concentration, 4 Hr.” value with growth hormone (GH) was 107 ± 34 ng/mL. Moreover, the Glucagon stood at 70 ± 7 pg/mL in the test with glucagon (10 μg/kg s.c.) and 5 ± 2 pg/mL with glucagon (100 μg/kg s.c.). Further, the Insulin was found to be 318 ± 54 μU/ml with insulin (10 μg/kg s.c.) and 165 ± 21 μU/ml with insulin (100 μg/kg s.c.).

Values taken from US4104267A, “Somatostatin analogs” (American Home Products Corporation, priority 1977, dated 1978).
